The values that follow come from patent US20240132431A1, “METHOD FOR ALKYLATING ACIDIC FUNCTIONAL GROUP” (Chugai Seiyaku Kabushiki Kaisha, priority 2021, published 2024).

For the assay, the target named is T1, Bcl-2 protein (Recombinant Human Bcl-2 Protein) (Homo sapiens, UniProt P10415).
T1 construct: purchased Novus NBP2-34889
Briefly: Binding evaluation of mixture library compounds to Bcl-2 using AS-MS (affinity selection mass spectrometry). To be noted: for ASMS ratio (%) n = 1 / ASMS ratio (%) n = 2: ASMS Ratio(%)=(A−C)/B×100; for ASMS ratio (%) n = 1: replicate n = 1; for ASMS ratio (%) n = 2: replicate n = 2. The method in brief: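 Bcl-2 binding is scored from LC/MS signal retained with protein through gel-filtration spin columns, normalised to unfiltered and protein-free controls. Incubation: 20 μM protein, […] per compound, 1 h, 23° C.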

Where [1] appears, read: AS-MS, mixture of 1200 compounds, Bcl-2.
[2] abbreviates: AS-MS on the mixture of 1200 library compounds.

T1 sequence (P10415 whole entry): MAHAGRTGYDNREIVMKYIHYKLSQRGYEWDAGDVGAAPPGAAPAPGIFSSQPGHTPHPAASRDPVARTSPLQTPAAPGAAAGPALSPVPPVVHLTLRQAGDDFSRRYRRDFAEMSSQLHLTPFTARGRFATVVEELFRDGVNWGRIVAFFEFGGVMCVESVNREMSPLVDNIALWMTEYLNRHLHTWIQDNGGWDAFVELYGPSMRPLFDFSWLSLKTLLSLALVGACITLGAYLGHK

For the molecule `CCOc1cccc(-c2csc(C(=O)N3CCN(c4ccc(C(=O)NS(=O)(=O)c5ccc(NCCSc6ccccc6)c(C(F)(F)F)c5)cc4)CC3)c2)c1` [B2R023-01, 4-[4-[4-(3-Ethoxyphenyl)thiophene-2-carbonyl]piperazin-1-yl]-N-[4-(2-phenylsulfanylethylamino)-3-(trifluoromethyl)phenyl]sulfonylbenzamide], the “ASMS ratio (%)” value was 0.0% (n = 1) and −15.5% (n = 2). On to `CCOc1cccc(-c2cnn(-c3cc(C(=O)N4CCN(c5ccc(C(=O)NS(=O)(=O)c6ccc(NCCSc7ccccc7)c(C(F)(F)F)c6)cc5)CC4)cc(C(F)(F)F)c3)c2)c1` [B2R043-01, 4-[4-[3-[4-(3-Ethoxyphenyl)pyrazol-1-yl]-5-(trifluoromethyl)benzoyl]piperazin-1-yl]-N-[4-(2-phenylsulfanylethylamino)-3-(trifluoromethyl)phenyl]sulfonylbenzamide], for which the “ASMS ratio (%)” value (n = 1) is listed as 3.4% and the “ASMS ratio (%)” value (n = 2) is given as −9.0%. Take `CCOc1cncc(C#Cc2ccccc2CN2CCN(c3ccc(C(=O)NCC(F)(F)F)cc3)CC2)c1` [B1K070-01, 4-[4-[[2-[2-(5-Ethoxypyridin-3-yl)ethynyl]phenyl]methyl]piperazin-1-yl]-N-(2,2,2-trifluoroethyl)benzamide]: under setting [1], the “ASMS ratio (%) n = 1” value is on record as 0.0% and the “ASMS ratio (%) n = 2” value is reported as 0.0%. In the case of “4-[4-[[3-(5-Ethoxypyridin-3-yl)-5-(trifluoromethyl)phenyl]methyl]piperazin-1-yl]-N-propylbenzamide [B1M028-01]”, under setting [1], the “ASMS ratio (%) n = 1” value amounted to 0.0% and the “ASMS ratio (%) n = 2” value is 0.0%. As to `CCOc1cncc(C#Cc2cncc(C(=O)N3CCN(c4ccc(C(=O)NCC56CC7CC(CC(C7)C5)C6)cc4)CC3)c2)c1` [B1A032-01, N-(1-Adamantylmethyl)-4-[4-[5-[2-(5-ethoxypyridin-3-yl)ethynyl]pyridine-3-carbonyl]piperazin-1-yl]benzamide], under setting [1], the “ASMS ratio (%) n = 1” value was determined as 0.0% and the “ASMS ratio (%) n = 2” value was −9.1%. `CCOc1cncc(-c2ccc(CN3CCN(c4ccc(C(=O)Nc5ccc(OC)cc5)nn4)CC3)c(CC)c2)c1` [B1O076-01, 6-[4-[[4-(5-Ethoxypyridin-3-yl)-2-ethylphenyl]methyl]piperazin-1-yl]-N-(4-methoxyphenyl)pyridazine-3-carboxamide]: under setting [2], the “ASMS ratio (%) n = 1” value was 4.4% and the “ASMS ratio (%) n = 2” value amounted to 1.1%.

As for `CCOc1cncc(-c2ccc(CN3CCN(c4ccc(C(=O)NS(C)(=O)=O)nn4)CC3)c(OC)c2)c1` [B2I080-01, 6-[4-[[4-(5-Ethoxypyridin-3-yl)-2-methoxyphenyl]methyl]piperazin-1-yl]-N-methylsulfonylpyridazine-3-carboxamide], the “ASMS ratio (%)” value (n = 1) is 0.0%.

`CCOc1cncc(-c2ccc(CN3CCN(c4ccc(C(=O)NS(=O)(=O)c5ccc(NCCSc6ccccc6)c([N+](=O)[O-])c5)nn4)CC3)cc2F)c1` [B2Q078-01]: where the note is “AS-MS, mixture library, Bcl-2”, the “ASMS ratio (%) n = 1” value stood at 15.6% and the “ASMS ratio (%) n = 2” value was 12.1%. For `CCOc1cncc(-c2ccc(CN3CCN(c4ccc(C(=O)NS(=O)(=O)c5ccc(NCCSc6ccccc6)c([N+](=O)[O-])c5)cc4)CC3)c(CC)c2)c1` [B2Q050-01, 4-[4-[[4-(5-Ethoxypyridin-3-yl)-2-ethylphenyl]methyl]piperazin-1-yl]-N-[3-nitro-4-(2-phenylsulfanylethylamino)phenyl]sulfonylbenzamide], in that order: 0.0% and 0.0%. Take `CCOc1cccc(-c2cc(CN3CCN(c4ccc(C(=O)NCC(F)(F)F)cc4)CC3)cc(OC(C)C)c2)c1` [B1K057-01, 4-[4-[[3-(3-Ethoxyphenyl)-5-propan-2-yloxyphenyl]methyl]piperazin-1-yl]-N-(2,2,2-trifluoroethyl)benzamide]: under setting [1], the “ASMS ratio (%) n = 1” value worked out at 1.0% and the “ASMS ratio (%) n = 2” value was −2.6%. With `CCOc1cccc(-c2csc(C(=O)N3CCN(c4ccc(C(=O)NS(=O)(=O)c5ccc(NCCSc6ccccc6)c([N+](=O)[O-])c5)cc4)CC3)c2)c1` [B2Q023-01, 4-[4-[4-(3-Ethoxyphenyl)thiophene-2-carbonyl]piperazin-1-yl]-N-[3-nitro-4-(2-phenylsulfanylethylamino)phenyl]sulfonylbenzamide], under “AS-MS, mixture library, Bcl-2”, the “ASMS ratio (%) n = 1” value was 0.0% and the “ASMS ratio (%) n = 2” value turned out to be 0.0%. Take “6-[4-[[4-(5-Ethoxypyridin-3-yl)-3-methylphenyl]methyl]piperazin-1-yl]-N-propylpyridazine-3-carboxamide [B1M065-01]”: under setting [1], the “ASMS ratio (%) n = 1” value was determined as 0.2% and the “ASMS ratio (%) n = 2” value was −6.4%. Consider `CCOc1cncc(-c2ccc(C(=O)N3CCN(c4ccc(C(=O)N(CC)CC)cc4)CC3)c3ccccc23)c1` [B4J036-01, 4-[4-[4-(5-Ethoxypyridin-3-yl)naphthalene-1-carbonyl]piperazin-1-yl]-N,N-diethylbenzamide], for which, under setting [2], the “ASMS ratio (%) n = 1” value was −0.3% and the “ASMS ratio (%) n = 2” value is −1.6%. As for `CCOc1cncc(-c2cc(C(=O)N3CCN(c4ccc(C(=O)NS(=O)(=O)CCC(F)(F)F)cc4)CC3)cc(C(F)(F)F)c2)c1` [B2N040-01, 4-[4-[3-(5-Ethoxypyridin-3-yl)-5-(trifluoromethyl)benzoyl]piperazin-1-yl]-N-(3,3,3-trifluoropropylsulfonyl)benzamide], the “ASMS ratio (%)” value is, setting by setting: (n = 1) 0.0%; (n = 2) 0.0%. With `CCOc1cncc(-c2ccc(CN3CCN(c4ccc(C(=O)N(C)CC56CC7CC(CC(C7)C5)C6)cc4)CC3)c3ccccc23)c1` [B3A066-01, N-(1-Adamantylmethyl)-4-[4-[[4-(5-ethoxypyridin-3-yl)naphthalen-1-yl]methyl]piperazin-1-yl]-N-methylbenzamide], under setting [2], the “ASMS ratio (%) n = 1” value came out at 6.3% and the “ASMS ratio (%) n = 2” value is −2.9%. Turning to `CCOc1cncc(-c2ccccc2CCC(=O)N2CCN(c3ccc(C(=O)NS(=O)(=O)CCC(F)(F)F)cc3)CC2)c1` [B2N034-01, 4-[4-[3-[2-(5-Ethoxypyridin-3-yl)phenyl]propanoyl]piperazin-1-yl]-N-(3,3,3-trifluoropropylsulfonyl)benzamide], the “ASMS ratio (%)” value by setting is: (n = 1) −0.2%; (n = 2) 1.0%. `CCOc1cccc(C#Cc2ccccc2C(=O)N2CCN(c3ccc(C(=O)N(CC)CC)cc3)CC2)c1` [B4J029-01, 4-[4-[2-[2-(3-Ethoxyphenyl)ethynyl]benzoyl]piperazin-1-yl]-N,N-diethylbenzamide]: under setting [2], the “ASMS ratio (%) n = 1” value is reported as 0.0% and the “ASMS ratio (%) n = 2” value was found to be 0.0%. With `CCOc1cccc(-c2ccc(C(=O)N3CCN(c4ccc(C(=O)NS(=O)(=O)c5ccc(NCCSc6ccccc6)c(C(F)(F)F)c5)nn4)CC3)cc2F)c1` [B2R005-01, 6-[4-[4-(3-ethoxyphenyl)-3-fluorobenzoyl]piperazin-1-yl]-N-[4-(2-phenylsulfanylethylamino)-3-(trifluoromethyl)phenyl]sulfonylpyridazine-3-carboxamide], the “ASMS ratio (%)” value runs as follows: (n = 1) 44.0%; (n = 2) 39.5%. As to `CCOc1cncc(-c2cc(CN3CCN(c4ccc(C(=O)N(CC)CC)cc4)CC3)cc(OCC)c2)c1` [B4J056-01], under setting [2], the “ASMS ratio (%) n = 1” value is −1.4% and the “ASMS ratio (%) n = 2” value is −1.5%. Consider `CCOc1cccc(C#Cc2cc(C(=O)N3CCN(c4ccc(C(=O)NS(=O)(=O)c5ccc(NCCSc6ccccc6)c([N+](=O)[O-])c5)nn4)CC3)cc(C(F)(F)F)c2)c1` [B2Q019-01, 6-[4-[3-[2-(3-Ethoxyphenyl)ethynyl]-5-(trifluoromethyl)benzoyl]piperazin-1-yl]-N-[3-nitro-4-(2-phenylsulfanylethylamino)phenyl]sulfonylpyridazine-3-carboxamide], for which, where the note is “AS-MS, mixture library, Bcl-2”, the “ASMS ratio (%) n = 1” value turned out to be 0.7% and the “ASMS ratio (%) n = 2” value turned out to be 14.1%. Take `CCOc1cccc(-c2ccc(CN3CCN(c4ccc(C(=O)NS(=O)(=O)c5ccc(NCCSc6ccccc6)c(C(F)(F)F)c5)nn4)CC3)c(CC)c2)c1` [B2R075-01, 6-[4-[[4-(3-Ethoxyphenyl)-2-ethylphenyl]methyl]piperazin-1-yl]-N-[4-(2-phenylsulfanylethylamino)-3-(trifluoromethyl)phenyl]sulfonylpyridazine-3-carboxamide]: the “ASMS ratio (%)” value (n = 1) is 8.6% and the “ASMS ratio (%)” value (n = 2) is 0.0%.

On to “4-[4-[5-[2-(5-Ethoxypyridin-3-yl)ethynyl]pyridine-3-carbonyl]piperazin-1-yl]-N-propylbenzamide [B1M057-01]”, for which, under setting [1], the “ASMS ratio (%) n = 1” value is given as −0.7% and the “ASMS ratio (%) n = 2” value is 1.4%. The like results for `CCOc1cccc(-c2ccccc2CN2CCN(c3ccc(C(=O)NCC(F)(F)F)cc3)CC2)c1` [B1K045-01, 4-[4-[[2-(3-Ethoxyphenyl)phenyl]methyl]piperazin-1-yl]-N-(2,2,2-trifluoroethyl)benzamide] were, in that order, 1.5% and −0.1%. As for `CCOc1cccc(-c2ccc(CN3CCN(c4ccc(C(=O)NS(=O)(=O)CCC(F)(F)F)nn4)CC3)cc2F)c1` [B2N077-01, 6-[4-[[4-(3-Ethoxyphenyl)-3-fluorophenyl]methyl]piperazin-1-yl]-N-(3,3,3-trifluoropropylsulfonyl)pyridazine-3-carboxamide], the “ASMS ratio (%)” value runs as follows: (n = 1) 0.0%; (n = 2) 0.0%. Turning to `CCOc1cccc(-c2csc(CN3CCN(c4ccc(C(=O)NS(C)(=O)=O)cc4)CC3)c2)c1` [B2I067-01, 4-[4-[[4-(3-Ethoxyphenyl)thiophen-2-yl]methyl]piperazin-1-yl]-N-methylsulfonylbenzamide], the “ASMS ratio (%)” value by setting is: (n = 1) 0.0%; (n = 2) 0.0%.
